Experimental data from patent US7851503B2, “Thrombopoetin receptor activator and process for producing the same” (Nissan Chemical Industries, Ltd., priority 2002, dated 2010).

Legend:
[1] = test system: UT7/EPO-mpl cells (expressing human TPO receptor (c-mpl)); test: Cell proliferation assay with WST-8 reagent, TPO-dependent cell line UT7/EPO-mpl; type: cell-based; conditions: 4 days incubation, absorbance at 450 nm
Experimental: Stimulation of Proliferation of a Thrombopoietin (TPO)-Dependent Cell Line (2)
The reactivity of a compound of the present invention, 3-methoxyxanthocillin X dimethyl ether, with thrombopoietin (TPO) receptor was assayed using a human leukemic cell line, UT7/EPO-mpl.
(§1) Cells subcultured in the same manner as in Assay Example 1(1) were washed twice with PBS and suspended in IMDM containing 10% FBS at a cell density of 6×10^4 cells/ml. The cell suspension was transferred to a 96-well tissue culture plate (CORNING) in 100-μl aliquots. Then, 3-methoxyxanthocillin X dimethyl ether dissolved in DMSO was diluted 83-fold with IMDM containing 10% FBS and added to the aforementioned cell suspension in 20-μl aliquots. The suspension was incubated in a CO2 incubator (5% CO2, 37° C.) for 4 days. Cell proliferation was assayed using WST-8 reagent (Kishida Chemical Co., Ltd.) according to instructions by the manufacturer. A 10-μl aliquot of 5 mM WST-8 reagent solution was added to each well of the tissue culture plate, and the plate was incubated at 37° C. for 4 h. The formazan pigment generated was detected by measuring the absorbance at 450 nm with a 96-well microplate reader (Nihon Molecular Devices, Spectramax 190).

[2] = test system: UT7/EPO cells; test: Cell proliferation assay with WST-8 reagent, mother cell line UT7/EPO expressing no TPO receptor; type: cell-based, human; conditions: 4 days incubation, absorbance at 450 nm
Experimental: as §1

[3] = test system: UT7/EPO-mpl cells (expressing human TPO receptor (c-mpl)); test: Cell proliferation assay by the MTT method, TPO-dependent cell line UT7/EPO-mpl; type: cell-based; conditions: 4 days incubation, absorbance at 550 nm
Experimental: Stimulation of Proliferation of a Thrombopoietin (TPO)-Dependent Cell Line (1)
(§2) The reactivity of a compound of the present invention, xanthocillin X monomethyl ether, with thrombopoietin (TPO) receptor was assayed using a human leukemic cell line, UT7/EPO-mpl. UT7/EPO-mpl is a stable transformed cell line obtained by introducing into human leukemic cell line UT7/EPO a vector that induces expression of human TPO receptor (c-mpl) under control of a cytomegaloviral promoter by the method of Takatoku et al. (J. Biol. Chem., 272:7259-7263 (1997)). […] These two cell lines were subcultured in IMDM (GIBCO) containing 10% fetal bovine serum (FBS; TRACE SCIENTIFIC) using a CO2 incubator (5% CO2, 37° C.).
The subcultured cells described above were washed twice with PBS and suspended in IMDM containing 10% FBS at a cell density of 6×10^4 cells/ml. The cell suspension was transferred to a 96-well tissue culture plate (CORNING) in 100-μl aliquots. Then, xanthocillin X monomethyl ether dissolved in DMSO was diluted 83-fold with IMDM containing 10% FBS and added to the aforementioned cell suspension in 20-μl aliquots. […] The formazan pigment generated was dissolved by adding 150 μl per well of 0.1 M/L HCl/isopropanol solution and the absorbance of the resulting pigment solution was measured at 550 nm with a 96-well microplate reader (BIO-RAD, M450).

[4] = test system: UT7/EPO cells; test: Cell proliferation assay by the MTT method, mother cell line UT7/EPO expressing no TPO receptor; type: cell-based, human; conditions: 4 days incubation, absorbance at 550 nm
Experimental: as §2
The subcultured cells described above were washed twice with PBS and suspended in IMDM containing 10% FBS at a cell density of 6×10^4 cells/ml. The cell suspension was transferred to a 96-well tissue culture plate (CORNING) in 100-μl aliquots. Then, xanthocillin X monomethyl ether dissolved in DMSO was diluted 83-fold with IMDM containing 10% FBS and added to the aforementioned cell suspension in 20-μl aliquots. The suspension was incubated in a CO2 incubator (5% CO2, 37° C.) for 4 days. […] The formazan pigment generated was dissolved by adding 150 μl per well of 0.1 M/L HCl/isopropanol solution and the absorbance of the resulting pigment solution was measured at 550 nm with a 96-well microplate reader (BIO-RAD, M450).

Row | SMILES | proliferation of TPO-responsive UT7/EPO-mpl cells (WST assay, FIG. 3) [1] | effect on proliferation of UT7/EPO, the mother cell line (WST assay, FIG. 4) [2] | proliferation of TPO-responsive UT7/EPO-mpl cells (MTT assay, FIG. 1) [3] | effect on proliferation of UT7/EPO, the mother cell line (MTT assay, FIG. 2) [4]
1 | [C-]#[N+]C(=Cc1ccc(OC)cc1)C(=Cc1ccc(OC)c(OC)c1)[N+]#[C-] [3-methoxyxanthocillin X dimethyl ether] | stimulated | no effect | – | –
2 | [C-]#[N+]C(=C\c1ccc(O)cc1)/C(=C/c1ccc(OC)cc1)[N+]#[C-] [xanthocillin X monomethyl ether] | – | – | stimulated | no effect
